Data: ChEMBL document CHEMBL5050844 (2019)

Key:
[1] = Induction of anti-CD3/CD28 antibodies-stimulated human T cell activation at 4 uM assessed fold increase in IL-2 secretion measured by ELISA assay; type: functional, T cell line
[2] = Induction of anti-CD3/CD28 antibodies-stimulated human T cell activation at 0.3 uM assessed fold increase in IL-2 secretion measured by ELISA assay; type: functional, T cell line
[3] = Induction of anti-CD3 antibodies-stimulated human T cell activation at 8 uM assessed fold increase in IL-2 secretion measured by ELISA assay; type: functional, T cell line; note: reference of the scale not given here
[4] = Induction of anti-CD3 antibodies-stimulated human T cell activation at 1 uM assessed fold increase in IL-2 secretion measured by ELISA assay; type: functional, T cell line; note: reference of the scale not given here
[5] = Induction of anti-CD3/CD28 antibodies-stimulated human T cell activation at 4 uM assessed fold increase in CD25 expression measured by ELISA assay; type: functional, T cell line
[6] = Induction of anti-CD3/CD28 antibodies-stimulated human T cell activation at 1 uM assessed fold increase in CD25 expression measured by ELISA assay; type: functional, T cell line
[7] = Induction of anti-CD3/CD28 antibodies-stimulated human T cell activation at 0.3 uM assessed fold increase in CD25 expression measured by ELISA assay; type: functional, T cell line
[8] = Induction of anti-CD3 antibodies-stimulated human T cell activation at 8 uM assessed fold increase in CD25 expression measured by ELISA assay; type: functional, T cell line; note: reference of the scale not given here
[9] = Induction of anti-CD3 antibodies-stimulated human T cell activation at 1 uM assessed fold increase in CD25 expression measured by ELISA assay; type: functional, T cell line; note: reference of the scale not given here
[10] = Induction of anti-CD3/CD28 antibodies-stimulated human CD4+ T cell activation at 10 uM assessed fold increase in CD69 expression measured by flow cytometry analysis; type: functional, T cell line
[11] = Induction of anti-CD3/CD28 antibodies-stimulated human CD4+ T cell activation at 10 uM assessed fold increase in cell proliferation measured by flow cytometry analysis; type: functional, T cell line
[12] = Induction of anti-CD3/CD28 antibodies-stimulated human CD4+ T cell activation at 1.11 uM assessed fold increase in cell proliferation measured by flow cytometry analysis; type: functional, T cell line
[13] = Induction of anti-CD3/CD28 antibodies-stimulated human CD8+ T cell activation at 1.11 uM assessed fold increase in CD69 expression measured by flow cytometry analysis; type: functional, T cell line
[14] = Induction of anti-CD3/CD28 antibodies-stimulated human CD8+ T cell activation at 10 uM assessed fold increase in cell proliferation measured by flow cytometry analysis; type: functional, T cell line
[15] = Induction of anti-CD3/CD28 antibodies-stimulated human CD8+ T cell activation at 1.11 uM assessed fold increase in cell proliferation measured by flow cytometry analysis; type: functional, T cell line
[16] = Induction of anti-CD3 antibodies-stimulated human CD4+ T cell activation at 10 uM assessed fold increase in CD69 expression measured by flow cytometry analysis; type: functional, T cell line; note: reference of the scale not given here
[17] = Induction of anti-CD3 antibodies-stimulated human CD4+ T cell activation at 1.11 uM assessed fold increase in CD69 expression measured by flow cytometry analysis; type: functional, T cell line; note: reference of the scale not given here
[18] = Induction of anti-CD3 antibodies-stimulated human CD8+ T cell activation at 10 uM assessed fold increase in CD69 expression measured by flow cytometry analysis; type: functional, T cell line; note: reference of the scale not given here
[19] = Induction of anti-CD3 antibodies-stimulated human CD8+ T cell activation at 1.11 uM assessed fold increase in CD69 expression measured by flow cytometry analysis; type: functional, T cell line; note: reference of the scale not given here
[20] = Induction of anti-CD3/CD28 antibodies-stimulated human T cell activation at 10 uM assessed fold increase in GM-CSF secretion measured by ELISA assay; type: functional, T cell line
[21] = Induction of anti-CD3 antibodies-stimulated human T cell activation at 10 uM assessed fold increase in GM-CSF secretion measured by ELISA assay; type: functional, T cell line; note: reference of the scale not given here
[22] = Induction of anti-CD3 antibodies-stimulated human T cell activation at 1.11 uM assessed fold increase in GM-CSF secretion measured by ELISA assay; type: functional, T cell line; note: reference of the scale not given here
[23] = Induction of anti-CD3/CD28 antibodies-stimulated human T cell activation at 10 uM assessed fold increase in IFN-gamma secretion measured by ELISA assay; type: functional, T cell line
[24] = Induction of anti-CD3/CD28 antibodies-stimulated human T cell activation at 1.11 uM assessed fold increase in IFN-gamma secretion measured by ELISA assay; type: functional, T cell line
[25] = Induction of anti-CD3 antibodies-stimulated human T cell activation at 10 uM assessed fold increase in IFN-gamma secretion measured by ELISA assay; type: functional, T cell line; note: reference of the scale not given here
[26] = Induction of anti-CD3 antibodies-stimulated human T cell activation at 1.11 uM assessed fold increase in IFN-gamma secretion measured by ELISA assay; type: functional, T cell line; note: reference of the scale not given here
[27] = Induction of allogenic human T cell activation at 10 uM assessed fold increase in cell proliferation; type: functional, T cell line
[28] = Induction of allogenic human T cell activation at 3 uM assessed fold increase in cell proliferation; type: functional, T cell line
[29] = Induction of anti-CD3 antibodies-stimulated human exhausted T cell activation assessed fold increase in IFN-gamma secretion measured by ELISA assay; type: functional, T cell line; note: reference of the scale not given here
[30] = Induction of anti-CD3 antibodies-stimulated human exhausted T cell activation assessed fold increase in IL-2 secretion measured by ELISA assay; type: functional, T cell line; note: reference of the scale not given here
[31] = Induction of anti-CD3 antibodies-stimulated human exhausted T cell activation assessed fold increase in GM-CSF secretion measured by ELISA assay; type: functional, T cell line; note: reference of the scale not given here
[32] = Induction of anti-CD3 antibodies-stimulated human exhausted CD4+ T cell activation assessed fold increase in CTLA4 expression measured by flow cytometry analysis; type: functional, T cell line; note: reference of the scale not given here
[33] = Induction of anti-CD3/CD28 antibodies-stimulated human anergic T cell activation at 10 uM assessed fold increase in IFN-gamma secretion measured by ELISA assay; type: functional, T cell line
[34] = Induction of anti-CD3/CD28 antibodies-stimulated human anergic T cell activation at 1.11 uM assessed fold increase in IFN-gamma secretion measured by ELISA assay; type: functional, T cell line
[35] = test system: B cell; assay: Induction of anti-IgM-stimulated human CD20+ B cell activation at 10 to 1000 uM assessed as increase in CD69 expression measured as mean fluorescence intensity AUC by flow cytometry analysis; type: functional, cell-based; details: dose 10-1000 µM
[36] = Induction of activation of human CD56+ CD3- NK cells co-cultured with human K562 cells in 1:1 ratio and assessed as increase in IFN-gamma secretion at 10 uM measured by ELISA assay; type: functional, Natural killer cell
[37] = Induction of activation of human CD56+ CD3- NK cells co-cultured with human K562 cells in 1:1 ratio and assessed as increase in IFN-gamma secretion at 0.625 uM measured by ELISA assay; type: functional, Natural killer cell
[38] = Induction of activation of human CD56+ CD3- NK cells co-cultured with human K562 cells in 1:1 ratio and assessed as increase in TNF-alpha secretion at 2.5 uM measured by ELISA assay; type: functional, Natural killer cell
[39] = Induction of activation of human CD56+ CD3- NK cells co-cultured with human K562 cells in 1:1 ratio and assessed as increase in TNF-alpha secretion at 0.625 uM measured by ELISA assay; type: functional, Natural killer cell

| Structure (SMILES) | fold change (FC) [1] | fold change (FC) [2] | fold change (FC) [3] | fold change (FC) [4] | fold change (FC) [5] | fold change (FC) [6] | fold change (FC) [7] | fold change (FC) [8] | fold change (FC) [9] | fold change (FC) [10] | fold change (FC) [11] | fold change (FC) [12] | fold change (FC) [13] | fold change (FC) [14] | fold change (FC) [15] | fold change (FC) [16] | fold change (FC) [17] | fold change (FC) [18] | fold change (FC) [19] | fold change (FC) [20] | other results |
| --- | --- | --- | --- | --- | --- | --- | --- | --- | --- | --- | --- | --- | --- | --- | --- | --- | --- | --- | --- | --- | --- |
| C[C@H](Cc1nncn1C)c1cccc(N2Cc3c(cc(CN4CC[C@](C)(O)C4)cc3C(F)(F)F)C2=O)c1 | >=7.5 | 2.51 | >=0.201 | 0.101 | 1.31 | 1.31 | 1.01 | >=1.001 | >=1.001 | 1.401 | >4 | >4 | 1.201 | >4 | 3.01 | >1.601 | >1.601 | 1.401 | 1.201 | >4 | fold change (FC) [21]: >4; fold change (FC) [22]: 2.01; fold change (FC) [23]: >4; fold change (FC) [24]: 3.01; fold change (FC) [25]: <=2; fold change (FC) [26]: <=2; fold change (FC) [27]: 2.01; fold change (FC) [28]: 2.01; fold change (FC) [29]: >1.61; fold change (FC) [30]: 2.51; fold change (FC) [31]: >1.61; fold change (FC) [32]: 1.41; fold change (FC) [33]: >4.01; fold change (FC) [34]: >4.01; AUC [35]: 0.5; fold change (FC) [36]: >=5; fold change (FC) [37]: 2.01; fold change (FC) [38]: 2.01; fold change (FC) [39]: 1.01 |
| Cn1cnnc1C(F)(F)[C@](C)(F)c1cccc(N2Cc3c(cc(CN4CC[C@@H](C#N)C4)cc3C(F)(F)F)C2=O)c1 | >=7.5 | 5 | >=0.201 | 0.151 | 1.31 | 1.31 | 1.01 | >=1.001 | 0.801 | 1.401 | >4 | >4 | 1.201 | >4 | 3.01 | >1.601 | 1.401 | 1.401 | 1.201 | >4 | fold change (FC) [21]: 2.01; fold change (FC) [22]: 1.51; fold change (FC) [23]: >4; fold change (FC) [24]: >4; fold change (FC) [25]: 3.01; fold change (FC) [26]: 2.01; fold change (FC) [27]: <=2; fold change (FC) [28]: <=2; fold change (FC) [29]: >1.61; fold change (FC) [30]: <=2.5; fold change (FC) [31]: >1.61; fold change (FC) [32]: >1.61; fold change (FC) [33]: >4.01; fold change (FC) [34]: 2.51; AUC [35]: 1.01; fold change (FC) [36]: >=5; fold change (FC) [37]: 2.01; fold change (FC) [38]: 2.01; fold change (FC) [39]: 1.01 |
| Cc1n[nH]c(C)c1-c1cc2c(c(C(F)(F)F)c1)CN(c1cccc(C3(Cc4nncn4C)COC3)c1)C2=O | >=7.5 | 1.01 | >=0.201 | 0.101 | 1.31 | 1.01 | 1.01 | >=1.001 | >=1.001 | 1.401 | >4 | >4 | 1.201 | 3.01 | 2.01 | >1.601 | 1.401 | 1.401 | 1.201 | 2.01 | fold change (FC) [21]: 2.01; fold change (FC) [22]: 1.51; fold change (FC) [23]: >4; fold change (FC) [24]: <=2; fold change (FC) [25]: <=2; fold change (FC) [26]: <=2; fold change (FC) [27]: <=2; fold change (FC) [28]: <=2; fold change (FC) [29]: 1.41; fold change (FC) [30]: <=2.5; fold change (FC) [31]: <=1.4; fold change (FC) [32]: >1.61; fold change (FC) [33]: >4.01; fold change (FC) [34]: <=2.5; AUC [35]: 1.01; fold change (FC) [36]: 2.01; fold change (FC) [37]: 1.01; fold change (FC) [38]: 1.01; fold change (FC) [39]: <=1 |
